Test results taken from ChEMBL document CHEMBL4715792, “In Vivo and In Vitro Optimization of Screening Antimalarial Hits toward Lead Molecules for Preclinical Development” (J Med Chem, 2016).
In brackets after ≈: the same amount, converted by molar mass.

Tests used:
[1] = Intrinsic clearance in mouse liver microsomes; type: ADME, Microsome
[2] = Aqueous solubility of compound; type: physicochemical
[3] = Selectivity index, ratio of CC50 for human MRC5 cells to EC50 for antimalarial activity against Plasmodium falciparum 3D7; type: toxicity; details: read-out: Selectivity Index
[4] = test system: Plasmodium falciparum; assay: Antimalarial activity against Plasmodium falciparum 3D7; type: functional, organism-based
[5] = test system: Plasmodium falciparum; assay: Antimalarial activity against drug resistant Plasmodium falciparum K1; type: functional, organism-based
[6] = test system: Plasmodium falciparum; assay: Antimalarial activity against drug resistant Plasmodium falciparum W2; type: functional, organism-based
[7] = test system: Plasmodium berghei; assay: Antimalarial activity against Plasmodium berghei infected in orally dosed mouse assessed as reduction in parasitemia; type: functional; details: po
[8] = test system: Plasmodium falciparum; assay: Antimalarial activity against drug resistant Plasmodium falciparum TM90C2A; type: functional, organism-based
[9] = test system: Plasmodium berghei; assay: Antimalarial activity against Plasmodium berghei infected in mouse assessed as reduction in parasitemia at 1 mg/kg, po dosed 4 times; type: functional
[10] = test system: Plasmodium falciparum; assay: Antimalarial activity against drug resistant Plasmodium falciparum NF5; type: functional, organism-based
[11] = test system: Plasmodium falciparum; assay: Antimalarial activity against drug resistant Plasmodium falciparum D6; type: functional, organism-based
[12] = test system: Plasmodium falciparum; assay: Antimalarial activity against drug resistant Plasmodium falciparum 7G8; type: functional, organism-based
[13] = test system: Plasmodium falciparum; assay: Antimalarial activity against drug resistant Plasmodium falciparum V1/S; type: functional, organism-based

**Q.** Which Intrinsic clearance [1] does the source give for `Cc1ccc(-c2cc(C(=O)Nc3cccnc3)c3cc(Br)ccc3n2)cc1` here?
**A.** The Intrinsic clearance was “>= 5 ml/min/g”.

**Q.** What about the solubility [2] of the same compound?
**A.** Its solubility is no more than 39 µM.

**Q.** What about the selectivity ratio [3] of the same compound?
**A.** The selectivity ratio was greater than 100.

**Q.** With `Cc1ccc(-c2cc(C(=O)Nc3cccnc3)c3cc(F)ccc3n2)cc1` as the compound, how does the Intrinsic clearance [1] read?
**A.** Its Intrinsic clearance is 8.6 mL/min/g.

**Q.** And the solubility [2]?
**A.** The solubility was 36 µM (≈ 12.9 µg/mL).

**Q.** With `Cc1ccc(-c2cc(C(=O)NCCN3CCCC3)c3cc(F)ccc3n2)cc1` as the compound, how does the Intrinsic clearance [1] read?
**A.** Its Intrinsic clearance is 3.4 mL/min/g.

**Q.** And the EC50 [4]?
**A.** Its EC50 is 700 nM.

**Q.** With `O=C(NCCN1CCCC1)c1cc(-c2ccc(CN3CCOCC3)cc2)nc2ccc(F)cc12` [CABAMIQUINE] as the compound, how does the EC50 [5] read?
**A.** Its EC50 is less than 1 nM.

**Q.** And the Intrinsic clearance [1]?
**A.** The Intrinsic clearance was less than 0.9 mL/min/g.

**Q.** And the EC50 [6]?
**A.** The EC50 was less than 1 nM.

**Q.** And the ED90 [7]?
**A.** The ED90 was 0.3 mg/kg.

**Q.** And the EC50 [8]?
**A.** The EC50 was less than 1 nM.

**Q.** What about the inhibition in vivo at 1 mg/kg [9] of the same compound?
**A.** The inhibition in vivo at 1 mg/kg was greater than 99%.

**Q.** What about the EC50 [10] of the same compound?
**A.** The EC50 was less than 1 nM.

**Q.** And the EC50 [11]?
**A.** Its EC50 is less than 1 nM.

**Q.** What about the EC50 [12] of the same compound?
**A.** Its EC50 is less than 1 nM.

**Q.** What about the EC50 [13] of the same compound?
**A.** Its EC50 is less than 1 nM.

**Q.** What about the EC50 [4] of the same compound?
**A.** The EC50 was 1 nM.
